The target in the experiment is T1, Concanavalin A (ConA) (Canavalia ensiformis, UniProt P02866).
T1 construct: purchased Sigma Aldrich
The experiment in a line: Glycan microarray incubated with biotinylated ConA, Cy3-streptavidin fluorescence detection. The format is binding. The following applies: spotted at 50 μM; 100 ng/ml (0.943 nM) biotinylated ConA; Cy3-labelled streptavidin. The procedure:
Four hundreds pL of each glycan was spotted at 10 μM or 50 μM concentration from an aqueous solution of […] (2.5 mM) and ascorbic acid (12.5 mM). A α-mannoside (10) and β-galactoside (11) were used as positive and negative controls. The immobilization reaction took place during an overnight incubation in a humid chamber at room temperature. The printed slides were sequentially washed with PBS buffer for 10 minutes with DI water and dried by a nitrogen stream. The arrayed slides were then incubated with biotinylated α-mannose-binding lectin Concanavalin A (ConA) in the lectin binding buffer (LBB, 50 mM HEPES, pH 7.4, 5 mM MnCl2, 5 mM CaCl2) in the presence of BSA (0.2 mg/ml). […] A final incubation of 1 h with 2 μg/ml Cyanine3 labelled Streptavidin in PBS (Phosphate Saline Buffer) in a humid chamber at room temperature under static condition enabled the fluorescence detection of the surface bound ConA by means of a scanner (ProScanArray scanner from Perkin Elmer, Boston, Mass., USA) used at 70% of laser power and 60% of photomultiplier (PMT) gain (FIG. 2b). The fluorescence intensities of 11 spot replicates were confirmed by three experiments that provided the same fluorescence intensities for each glycomimetic, with a standard deviation lower than 5%. […]
The graph (b) of FIG. 2 reports the fluorescence intensity observed for different glycan spots. […]

Consider `OC[C@H]1O[C@@H](O)[C@H](O)[C@@H](O)[C@H]1O` [Glycomimetic 11, β-galactose], for which the “interaction with ConA (spot fluorescence intensity, qualitative)” value was “lack of fluorescence”.

(Values after US20160200847A1, “CLICKABLE POLYMERS AND GELS FOR MICROARRAY AND OTHER APPLICATIONS” (priority 2014, published 2016).)
